Five compounds from patent publication US11208559B2, “Modified indigo compounds and methods of dyeing a substrate using a modified indigo compound” (VF Jeanswear LP, priority 2016, dated 2021) can be followed below.

What all share (type): physicochemical
Data set [1] is described as follows: Solubility studies in water (centrifugation, weighing of undissolved solids). Particulars: for Highest Solubility Measured (wt. %): in water, corrected for insoluble solids, true maximum solubility not determined; for average percent solids removed: undissolved solids removed during centrifugation of aqueous solutions. How it is done: The solutions were prepared by adding a known amount of dye to a known amount of water and agitating the solution. Separately, each solution of known concentration was centrifuged for 30 minutes to separate out any undissolved solids. The supernatant was decanted and the remaining undissolved solids were dried at 50° C. and later weighed to determine wt. % of soluble portion.
The actual concentration was determined by centrifuging the dye solutions extensively to remove any undissolved solids. The undissolved solids were then isolated, dried, and weighed.
Note that in all instances, a true maximum solubility in water has not been determined due to the very high solubility of the compounds in water. For all compounds, the maximum solubility was corrected for the amount of insoluble solids that were isolated during centrifugation.

Data set [2] is described as follows: Hydrolysis to indigo under hydrolyzing conditions.
Data set [3] is described as follows: Relative kinetics of degradation (hydrolysis) monitored by UV-Vis spectrophotometry. Particulars: 0.01 wt. % with 0.1M NaCl aqueous versus 0.01 wt. % without salt, room temperature. How it is done: In this example, the relative kinetics of degradation for two conditions for Compound 8 were measured. One solution contained 0.01 wt. % of Compound 8 and 0.1M NaCl aqueous and the other solution contained 0.01 wt. % of Compound 8. Both solutions were stored at room temperature and the hydrolysis monitored using UV-Vis spectrophotometry. See, FIG. 13.

A short description of data set [4]: Storage stability of aqueous dye solution at room temperature, UV-Vis spectra. Particulars: for compound converted to indigo: room temperature, 5 day period. How it is done: All UV-Vis spectra were obtained using a Varian Cary 6000i UV-Vis spectrophotometer.
The stability of Compound 8 was measured by diluting samples of the compound in water to provide 0.01 and 3% wt. % solutions. The solutions were then stored at room temperature for 5 days. The UV-Vis spectra of the solution after 1, 2, and 5 days were obtained. FIGS. 3 and 11A are the UV-Vis spectra which show the robustness of the dye compound after at least 2 days of storage at room temperature at both concentrations.
The longer term stability of Compound 8 was measured by diluting a sample of the compound in water to provide a 0.01 wt. % solution containing 0.1M NaCl (aq). The solution was then stored at room temperature for 5 days. The UV-Vis spectra of the solution were obtained daily over the 5 days.
The stability of Compound 8 was measured by preparing a 0.01 wt. % aqueous solution of compound 8 in water. The solution was then stored at room temperature for 2 days. The UV-Vis spectra of the solution after 1 and 2 days were obtained. FIG. 11B are the UV-Vis spectra which show the robustness of the dye compound after at least 2 days of storage at room temperature at both concentrations.

Data set [5] is described as follows: Heat treatment of dyed cotton fabric, conversion to indigo. The settings on record: 4 minutes. The procedure:
Prepared for dye (PFD) 3×1 twill cotton fabric dyed with Compound 8 prepared by dipping in an aqueous solution containing 3 wt. % of Compound 8, padding, and drying at 50° C. The samples were then placed separately into a lab-scale tenter frame for heat treatment. See, FIG. 20 showing the dyed fabric exposed to 100° C. (left), 150° C. (middle), and 180° C. (right).

Data set [6] can be described thus: Air stability of aqueous solution, UV-Vis spectra. How it is done:
The air stability of Compound 8 was measured by diluting of the compound in water to provide a 0.01 wt. % solution. […] The solid line represents the stability of the Compound 8 aqueous solution under atmospheric conditions. The dashed line represents the stability of the Compound 8 aqueous solution after treatment with 15 minutes of nitrogen purging of the solution, followed by storage for 1 day in a vial equipped with a rubber septum. See, FIG. 10. The UV-Vis spectra of the solutions were obtained.

A short description of data set [7]: Atmospheric steam treatment of dyed cotton skein, conversion to indigo. Particulars: steam under atmospheric conditions for 30 minutes. The procedure:
Cotton skeins were pretreated with 1 M NaOH (aq), dyed with a 3 wt. % aqueous solution of Compound 8, hydrolyzed using 1 M NaOH (aq), and then rinsed with water. One skein was dried at 50° C. and remains purple in color. See, the top skein in FIG. 21. The other skein was dried at 50° C. and then exposed to steam under atmospheric conditions for 30 minutes, resulting in the attainment of a blue hue. See, the botton skein in FIG. 21.

Data set [8] can be described thus: Dilution of stock solution into distilled water, comparison with leuco-indigo. The settings on record: for time to turn blue / convert back to indigo after dilution: 1 mL stock solution in 20 mL distilled water, no excess reducing agent. The procedure:
The stability and visual observations comparing what occurs when an aqueous stock solution of leuco-indigo and an aqueous solution Compound 8 were obtained. The leuco-indigo stock solution was prepared using 0.2 wt. % indigo powder, 0.5 wt. % NaOH, and 0.5 wt. % sodium hydrosulfite, the solution was heated to 50-60° C. for 30 minutes, and the solution was then allowed to cool to room temperature. An aqueous solution containing 3 wt. % of Compound 8 was prepared. 1 mL of each solution was then added to 20 mL of distilled water and physical observations were made. See, Table 3.

Data set [9] in a line: Insoluble solids filtered from stored dye solution with sodium sulfate (Test 4). Particulars: 2 wt. % aqueous solution, 0.45 micron filter. The procedure:
Aqueous solutions of 2 wt. % of Compound 8 were prepared with varying concentrations of sodium sulfate and then filtered through a 0.45 micron PVDF syringe filter after one day of room temperature storage. The filters were then dried at 120° C., cooled to room temperature, and weighed to quantify the amount of insoluble solids that had precipitated out of solution during storage.
In a control experiment, the weight change (−0.35%) was determined for a syringe filter that was flushed with 10 mL distilled water and then dried at 120° C.

Data set [10] can be described thus: Stability of Compound 4 in water, UV-Vis spectra. Particulars: 3 wt. % aqueous solution, room temperature, up to 2 days. How it is done: The stability of compound 4 was determined. An aqueous solution of 3 wt. % of Compound 4 was prepared at stored at room temperature for 2 days. The UV-Vis spectra for each solution were obtained prior to storage, 3 hours, 1 day, and 2 days. The solution was then diluted by a factor of 300 and the UV-Vis spectrum of FIG. 15 obtained.

[11] abbreviates: 1 mL stock solution added to 20 mL distilled water.

SMILES strings stand for the structures.

As for `O=C1/C(=C2/C(=O)c3ccccc3N2C(=O)c2ccncc2)N(C(=O)c2ccncc2)c2ccccc21` [Compound 37], in data set [1], the “Highest Solubility Measured (wt. %)” value came out at 1.6 wt. % and the “average percent solids removed” value was “about 26%”. Also, the hydrolysis to indigo result in data set [2] is listed as “hydrolyzes to indigo”.

As for `C[n+]1ccc(C(=O)N2/C(=C3\C(=O)c4ccccc4N3C(=O)c3cc[n+](C)cc3)C(=O)c3ccccc32)cc1` [Compound 8], the “hydrolysis rate with salt relative to without salt (factor slower)” value in data set [3] was “six”. The “Highest Solubility Measured (wt. %)” value in data set [1] was 40 wt. %. In data set [1], the “average percent solids removed” value was “about 2%”. Further, the “robustness of the dye compound on storage at room temperature” value is reported as “at least 2 days” in data set [4] (0.01 and 3 wt. % solutions in water, FIGS. 3 and 11A); “at least 2 days” in data set [4] (Example 27, 0.01 wt. % aqueous solution, FIG. 11B). Besides, the “compound converted to indigo” value is on record as 9% in [4] (0.01 wt. % solution containing 0.1M NaCl (aq)) and 41% in data set [4] (0.01 wt. % solution in water). Besides, the “conversion to indigo by heat” value was “no conversion” in [5] (100° C.), “slower conversion” in data set [5] (150° C.) and “relatively rapid conversion” in data set [5] (180° C.). The “UV-Vis spectra after one day, stored under nitrogen versus atmospheric conditions” value in data set [6] (0.01 wt. % solution in water, 1 day at 8° C.) is “identical”. In addition, the “air stability in solution” value in [6] (aqueous solution, storage at room temperature for 2 days) was “air stable”. Further, in data set [7], the “conversion to indigo by steam” value was “conversion to indigo”. The “Observation on dilution (color)” value in data set [8] (setting [11]) was “Dark purple solutions became lighter”. In data set [8] (setting [11]), the “UV-Vis spectra of diluted solutions” value is “superimposable - consistent with no”. Moreover, the “Fraction of dye compound removed during filtration (%)” value in data set [9] (0.1M Na2SO4, one day at room temperature) was 2.85%; in data set [9] (0.5M Na2SO4, one day at room temperature), −0.4%; in data set [9] (1M Na2SO4, one day at room temperature), 0.1%.

As to `Oc1c(-c2[nH]c3ccccc3c2O)[nH]c2ccccc12` [Leuco-indigo, leuco-indigo], the “Observation on dilution (color)” value in [8] (setting [11]) was “blue-green solution immediately”. The “time to turn blue / convert back to indigo after dilution” value in [8] is “solution turned blue under 10 seconds”; in data set [8] (listed as leuco-indigo), “less than 10 seconds”.

On to `O=C1/C(=C2/C(=O)c3ccccc3N2C(=O)c2ccncc2)N(C(=O)c2ccncc2)c2ccccc21` [Compound 35], for which, in data set [1], the “Highest Solubility Measured (wt. %)” value turned out to be 1.7 wt. % and the “average percent solids removed” value was “about 26%”.

For the compound `C[n+]1cccc(C(=O)N2/C(=C3\C(=O)c4ccccc4N3C(=O)c3ccc[n+](C)c3)C(=O)c3ccccc32)c1` [Compound 4], the “stability in water compared to Compound 8” value in data set [10] is reported as “relative instability”.
